Experimental data from publication PMC2095803 (Nucleic Acids Research, 2007).
Numbering of substitutions follows the chain as printed.

Key:
[1] = target: T1, AmpliTaqFS DNA polymerase (Thermus aquaticus, UniProt P19821, F667Y/G46D); experiment: PEP; type: biochemical, Thermus aquaticus YT-1
[2] = target: T2, Therminator II DNA polymerase (Thermococcus sp., UniProt Q56366, A485L/D141A/E143A/Y409V); experiment: PEP; type: biochemical, Thermococcus species 9ºN-7
T2 sequence (Q56366 1-775 D141A/E143A/Y409V/A485L): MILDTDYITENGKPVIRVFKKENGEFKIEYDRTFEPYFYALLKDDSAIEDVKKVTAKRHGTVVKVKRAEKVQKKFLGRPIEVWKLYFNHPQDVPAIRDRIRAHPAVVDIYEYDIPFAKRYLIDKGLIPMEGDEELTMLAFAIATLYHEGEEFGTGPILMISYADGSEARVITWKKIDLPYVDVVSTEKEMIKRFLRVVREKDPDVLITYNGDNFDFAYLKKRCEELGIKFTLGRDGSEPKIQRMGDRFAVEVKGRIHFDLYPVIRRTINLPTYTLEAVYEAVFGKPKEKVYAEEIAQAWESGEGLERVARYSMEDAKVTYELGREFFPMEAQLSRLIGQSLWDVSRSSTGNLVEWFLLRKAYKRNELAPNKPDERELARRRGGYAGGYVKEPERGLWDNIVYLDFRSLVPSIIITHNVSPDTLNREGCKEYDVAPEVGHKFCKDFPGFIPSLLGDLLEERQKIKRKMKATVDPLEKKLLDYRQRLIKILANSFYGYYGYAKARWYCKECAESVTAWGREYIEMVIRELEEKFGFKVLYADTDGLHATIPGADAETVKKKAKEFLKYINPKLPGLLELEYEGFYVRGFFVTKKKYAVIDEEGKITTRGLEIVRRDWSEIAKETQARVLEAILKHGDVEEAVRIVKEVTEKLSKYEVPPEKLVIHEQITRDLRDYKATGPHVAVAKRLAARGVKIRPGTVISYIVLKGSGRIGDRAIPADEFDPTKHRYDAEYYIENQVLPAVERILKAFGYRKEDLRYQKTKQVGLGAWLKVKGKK

[3] = target: T3, Vent(exo−) DNA polymerase (Thermococcus litoralis, UniProt P30317, D141A/E143A); experiment: PEP; type: biochemical
T3 sequence (P30317 with tags, fused parts or gaps D141A/E143A): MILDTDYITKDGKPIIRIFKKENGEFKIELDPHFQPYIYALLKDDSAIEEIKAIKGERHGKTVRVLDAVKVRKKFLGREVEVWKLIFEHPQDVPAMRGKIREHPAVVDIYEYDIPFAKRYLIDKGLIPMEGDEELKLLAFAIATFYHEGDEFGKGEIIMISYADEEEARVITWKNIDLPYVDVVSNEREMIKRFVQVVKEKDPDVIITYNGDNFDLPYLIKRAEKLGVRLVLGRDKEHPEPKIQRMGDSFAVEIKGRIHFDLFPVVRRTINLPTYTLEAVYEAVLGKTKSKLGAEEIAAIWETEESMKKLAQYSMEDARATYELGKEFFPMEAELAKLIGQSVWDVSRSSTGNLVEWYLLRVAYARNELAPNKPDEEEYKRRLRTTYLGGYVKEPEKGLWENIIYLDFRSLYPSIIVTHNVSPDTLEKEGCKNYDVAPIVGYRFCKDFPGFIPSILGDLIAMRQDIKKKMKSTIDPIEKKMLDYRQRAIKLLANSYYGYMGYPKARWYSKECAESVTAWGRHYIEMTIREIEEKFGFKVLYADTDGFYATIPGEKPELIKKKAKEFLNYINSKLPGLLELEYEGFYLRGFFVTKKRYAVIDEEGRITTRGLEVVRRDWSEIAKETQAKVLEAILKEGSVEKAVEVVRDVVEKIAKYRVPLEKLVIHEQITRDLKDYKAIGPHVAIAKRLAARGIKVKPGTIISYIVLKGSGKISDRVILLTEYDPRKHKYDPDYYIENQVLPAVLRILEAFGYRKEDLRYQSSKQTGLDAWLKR

[4] = target: T1, AmpliTaqFS DNA polymerase; experiment: PEP termination assay; type: biochemical, Thermus aquaticus YT-1
[5] = target: T4, Therminator DNA polymerase (Thermococcus sp., UniProt Q56366, A485L/D141A/E143A); experiment: PEP termination assay; type: biochemical, Thermococcus species 9ºN-7
T4 sequence (Q56366 1-775 D141A/E143A/A485L): T2 sequence (Q56366 1-775 D141A/E143A/Y409V/A485L) with V409Y

[6] = target: T2, Therminator II DNA polymerase; experiment: PEP termination assay; type: biochemical, Thermococcus species 9ºN-7
[7] = AmpliTaqFS, ratio of IC50 values
[8] = Therminator II, ratio of IC50 values

T1 sequence (P19821 whole entry G46D/F667Y): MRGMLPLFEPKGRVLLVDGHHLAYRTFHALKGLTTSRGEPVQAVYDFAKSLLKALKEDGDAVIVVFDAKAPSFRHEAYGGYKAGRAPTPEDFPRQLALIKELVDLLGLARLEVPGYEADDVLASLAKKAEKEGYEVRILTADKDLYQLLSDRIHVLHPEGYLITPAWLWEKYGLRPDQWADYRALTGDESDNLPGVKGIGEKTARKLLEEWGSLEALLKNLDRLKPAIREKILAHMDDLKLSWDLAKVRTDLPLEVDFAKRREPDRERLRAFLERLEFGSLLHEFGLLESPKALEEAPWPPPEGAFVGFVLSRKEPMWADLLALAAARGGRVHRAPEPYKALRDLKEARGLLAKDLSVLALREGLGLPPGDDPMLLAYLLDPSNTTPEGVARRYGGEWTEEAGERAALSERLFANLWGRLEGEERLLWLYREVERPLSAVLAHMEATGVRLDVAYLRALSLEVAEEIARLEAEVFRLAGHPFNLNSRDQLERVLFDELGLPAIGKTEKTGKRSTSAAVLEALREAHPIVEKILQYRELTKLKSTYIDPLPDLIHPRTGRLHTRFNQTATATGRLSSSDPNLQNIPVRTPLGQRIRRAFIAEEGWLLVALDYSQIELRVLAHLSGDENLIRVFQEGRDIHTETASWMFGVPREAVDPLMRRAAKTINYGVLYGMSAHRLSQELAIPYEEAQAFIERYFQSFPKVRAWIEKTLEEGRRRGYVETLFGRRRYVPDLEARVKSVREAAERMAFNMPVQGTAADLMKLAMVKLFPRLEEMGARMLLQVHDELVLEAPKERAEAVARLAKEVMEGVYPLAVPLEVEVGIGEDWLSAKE

| Structure (SMILES) | IC50 [1] [µM] | Incorporation bias ddATP/dATP [1, 7] | IC50 [2] [µM] | Incorporation bias ddATP/dATP [2, 8] | IC50 [3] [µM] | Incorporation bias Cpd IIIc/dATP [1, 7] | Incorporation bias Cpd IIIc/ddATP [1, 7] | Incorporation bias Cpd IIIc/dATP [2, 8] | Incorporation bias Cpd IIIc/ddATP [2, 8] | IC50 [4] [µM] | IC50 [5] [µM] | IC50 [6] [µM] |
| --- | --- | --- | --- | --- | --- | --- | --- | --- | --- | --- | --- | --- |
| Nc1ncnc2c1ncn2[C@H]1CC[C@@H](COP(=O)(O)OP(=O)(O)OP(=O)(O)O)O1 [ddATP, 2′,3′-dideoxyadenosine triphosphate, reference compound] | 0.0033 ± 0.0001 | 0.62 | 0.23 ± 0.03 | 52 | 0.55 ± 0.04 |  |  |  |  |  |  |  |
| O=[N+]([O-])c1ccccc1CNc1ncnc2c1ncn2[C@H]1C[C@H](O)[C@@H](COP(=O)(O)OP(=O)(O)OP(=O)(O)O)O1 [Compound IIIc, N^6-(2-Nitrobenzyl)-2’-deoxyadenosine-5’-triphosphate] |  |  |  |  | 0.0021 ± 0.0002 | 170 | 270 | 1.8 | 0.034 | 0.35 | 0.0018 | 0.03 |
